According to PMC9945865, “Anticancer evaluation of new organometallic ruthenium(II) flavone complexes” (RSC Medicinal Chemistry, 2022):

Columns and labels:
HUVECs = experiment: Matrigel endothelial cell tube formation assay (VEGF-mediated); format: cell-based, human; conditions: compared to the positive control (10 ng mL^−1 VEGF), 12 h
Protocol: In our recent study,[30] the 4′-chlorophenylflavone derivatives 1 and 2 have shown promising antiangiogenic activities in vitro. Herein, the effect of complexation with a ruthenium(II) metal ligand on the antiangiogenic activity of 1 and 2 was evaluated using the Matrigel tube formation assay that assesses many of the main steps involved in the process of angiogenesis. Inhibition of VEGF-mediated tube formation by the tested substrates was observed after 12 h of treatment on HUVECs at 1 μM and 10 μM concentrations. Luteolin is a natural flavone well known for its high antiangiogenic activity both in vitro and in vivo[34] and as such was used in this study as a reference standard. In accordance with reported data, luteolin inhibited the measured elements of tube formation by 30% compared to the positive control.[34,35] […] The ability of Ru(II) organometallic derivatives to target tumour metastasis has been widely reported both in vitro and in vivo.[3,6,9,36] Thus, based on the preliminary antiangiogenic trends observed for our target Ru(II) complexes (1Ru and 2Ru) and their parent flavones (1 and 2), we further investigated their antiproliferative and antimetastatic potential on the estrogen receptor positive breast cancer cell line (MCF-7) and the more aggressive triple negative cell line (MDA-MB-231).
HUVECs were cultured until confluency and then serum starved (0.1% serum) for 24 h. The tube formation assay followed the reported assay.[56] Briefly, 96 well plates were coated with 50 μL of Corning™ Matrigel™ GFR Membrane Matrix at 4 °C and incubated at 37 °C for 1–2 h to solidify. Serum starved HUVECs were seeded on the solidified Matrigel at 3 × 10^5 cells per mL and treated with medium containing VEGF (10 ng mL^−1) and either luteolin or one of the synthesised derivatives (at 1 μM or 10 μM). Plates were incubated for 12 h and photos covering the whole well area were taken using 4× magnification power of an inverted light microscope. Number of junctions, number and length of segments and master segments were quantified from the taken Images via the Angiogenesis Analyzer plugin[57] in ImageJ software.[58] […] Data was represented as a ratio to the positive control (VEGF enriched).

[1] = Cytotoxicity on HUVECs, trypan blue exclusion assay; format: cell-based, human; conditions: human, HUVEC cells, % of control, p > 0.05 vs control, read-out: Cell viability of HUVECs
Protocol: The biocompatibility of flavones (1 and 2)[30] alongside their ruthenium(II) metal complexes (1Ru and 2Ru) with HUVEC cells was established using the trypan blue exclusion assay. A concentration four times higher (i.e. 40 μM) than the highest concentration used for the tube formation antiangiogenic evaluation study (i.e. 10 μM) was selected for this cytotoxic assay.
Cytotoxic activity of treatments on HUVECs using trypan blue exclusion assay.[55] HUVECs were seeded in 96 well plates at 1 × 10^5 cells per mL and cultured for 24 h. Cells were then treated with either luteolin, the synthesised derivatives at 40 μM or culture medium (control) for 24 h. After 24 h, solutions were removed and cells washed with 100 μL PBS followed by the addition of 50 μL trypsin–EDTA and incubation for 5 min to detach the cells. 50 μL of EGM-2 media was added to the wells. 50 μL aliquots of the cell suspension were mixed with equal volume of trypan blue (TB) 0.2% v/v (prepared from 0.4% TB diluted with PBS) then the cells were counted using a haemocytometer. Number of viable and dead cells were counted manually and % cell viability of each treatment was expressed as % of control using the equation:% Cell Viability = (Cell viability in treatment/Cell viability in control) × 100where cell viability was calculated as follows:Cell Viability = Number of viable cells/Total number of cells(viable and dead).

MCF-7 [2] = experiment: Cell viability, 72 h MTT assay; format: cell-based, human; conditions: Homo sapiens, MCF7; MCF-7, 72 h MTT, mean ± SEM, n = 3
Protocol: (§1) The unique chemical features and coordination geometries of metal ions can add several additional binding interactions that can potentially enhance their anticancer properties for example by allowing intercalation and exploitation of their redox potential.[24] […] In that context, coordination of derivative (2) with a Ru(II) metal ligand is a promising approach to further improve its antiproliferative activity.
(§2) MCF-7 and MDA-MB-231 cells were seeded at a density of 4 × 10^4 and 2 × 10^4 cells per mL, respectively, into 96 well plates and incubated to allow the attachment for 24 h. After 24 h, the cells were treated with one of the synthesised derivatives at range of concentrations (0–100 μM) for 67 h. After 67 h, 20 μL of MTT (5 mg mL^−1) solution in PBS was added to each well and the cells were incubated for 5 h. The purple crystals formed were dissolved in 100 μL of DMSO and the plates were read at 560 nm using a SPECTRA max UV spectrometer (Bio-Rad). The data represented are the mean of the three individual experiments.

MDA-MB-231 [3] = experiment: Cell viability, 72 h MTT assay; format: cell-based, human; conditions: Homo sapiens; MDA-MB-231, 72 h MTT, mean ± SEM, n = 3
Protocol: as §1, §2

VEGF i-motif DNA [4] = experiment: I-motif DNA binding, UV-visible absorbance; design: species or system human; conditions: DNA : flavonoid 2 μM : 2 μM, pH 5.5, 25 °C
From the text: (§3) I-motifs are four stranded antiparallel cytosine rich DNA sequences capable of forming at telomere and promotor regions of genomic DNA.[41,42] […] Due to the presence of potential i-motif forming sequences in 69% of promoter regions in human oncogenes, they are postulated to play a key role in oncogene expression regulation.[44] VEGF and c-myc i-motif sequences are prevalent in oncogene promotor regions in many cancers including breast cancer and as such their ligands have potential anticancer roles.[45] The natural flavonol, fisetin, is reported to specifically bind to VEGF i-motif DNA and regulate its function by stabilizing its hairpin structure.[31] […] In continuation of our investigation of the effects of Ru metal complexation on the different biological activities of flavonoids, interactions with VEGF and c-myc i-motif DNA were studied using UV-vis spectroscopic techniques. […] However, 2Ru's addition led to a 1 nm hypsochromic shift of VEGF i-motif absorbance maximum from 272 to 271 nm. On the other hand, addition of the 4-oxo flavone (1) and its Ru complex (1Ru) led to minor changes in λmax of both sequences that was hypochromic (5% and 3%) with VEGF and hyperchromic (2% and 5%) in case of c-myc (Fig. 8).
(§4) UV-visible absorbance measurements and DNA UV melting studies were performed on a Cary 300 C (Varian USA) UV-visible spectrophotometer. VEGF and c-myc i-motif DNA (5′-3′ sequences ([…]) and ([…]), respectively) were purchased from Sigma-Aldrich (Gillingham, UK) and used without further purification. Na cacodylate buffer (20 mM, pH 5.5) was used for both i-motifs. DNA concentrations were determined by measuring the absorbance at 260 nm after melting using the molar extinction coefficient supplied by the manufacturer. VEGF and c-myc i-motifs were prepared for experiments by diluting with buffer solution, annealed with or without the flavonoid at 95 °C for 5 min then gently cooled to room temperature. The stock solutions of the test compounds (20 mM) were prepared in 100% sterile DMSO. These stocks were then appropriately diluted with HPLC grade water and DMSO levels were maintained below 0.1% in the test concentrations.
(§5) UV-visible absorbance measurements and UV melting studies of either free i-motifs (VEGF or c-myc), free flavone (1, 1Ru, 2 or 2Ru) or both i-motif DNA and flavone (2 μM: 2 μM) were recorded using 1.0 cm matched quartz cuvettes. First spectra were recorded in the range of 200–500 nm to determine the relevant wavelength range were no peaks were observed above 320 nm. […] UV-visible absorbance was measured at 25 °C while melting curves were collected at a heating rate of 1 °C min^−1 from 20 to 90 °C. Tm was calculated by non-linear fitting of the sigmoidal curve obtained at 295 nm.

c-myc i-motif DNA [5] = experiment: I-motif DNA binding, UV-visible absorbance; design: species or system human; conditions: DNA : flavonoid 2 μM : 2 μM, pH 5.5, 25 °C
From the text: as §3, §4, §5

VEGF i-motif DNA [6] = experiment: I-motif DNA UV melting (thermal stability); format: binding, human; conditions: for Tm: VEGF i-motif with flavone at 1 : 1 ratio, 295 nm, free DNA 46 °C; for ΔTm: VEGF i-motif, 1 : 1 ratio, ΔTm = Tm (DNA-flavone) − Tm (DNA)
From the text: (§6) The effect of this set of flavones on VEGF and c-myc was further evaluated via thermal stability measurements. Stabilizing/destabilizing the promotor i-motif structures is often reported to regulate expression of the corresponding genes, which for VEGF and c-myc could have detrimental effects on cancer growth and propagation.[48] As observed in Fig. 9, effects of the test flavones on the thermal stability of the VEGF and c-myc i-motif sequences were generally marginal and in agreement with λmax chromophoric shifts. […] Compound 1 destabilized VEGF i-motif in contrast to stabilizing the c-myc one. This mirrored the trend of a higher chromophoric shift observed for flavone 1 with VEGF i-motif sequence that also differed in pattern (hypochromic) from the shift witnessed with the c-myc sequence (hyperchromic). These findings could indicate higher selectivity of the 4-oxo derivative (1) towards VEGF i-motif based on an intercalative binding mode especially that hypochromic shifts are reported with DNA intercalation.[49,50] […] In this regard, the highest i-motif activity seen for the parent flavonoids was switched from VEGF to c-myc with compound 1 and vice versa with compound 2 upon Ru chelation. This emphasizes the key role of the interplay between the substitution at position 4 and metal complexation on the interaction with biological targets.
as §4, §5

c-myc i-motif DNA [7] = experiment: I-motif DNA UV melting (thermal stability); format: binding, human; conditions: for Tm: c-myc i-motif with flavone at 1 : 1 ratio, 295 nm, free DNA 45 °C; for ΔTm: c-myc i-motif, 1 : 1 ratio, ΔTm = Tm (DNA-flavone) − Tm (DNA)
From the text: as §6, §4, §5

MCF-7 [8] = experiment: Wound healing (migration) 24 h scratch assay; format: cell-based, human; conditions: MCF-7, any of the tested doses (1, 10, 20 μM)
Protocol: (§7) Malignant cell migration is essential for tumour invasion and metastasis.[1] Thus, the ability of the synthetic flavones (1 and 2) and their Ru(II) metal complexes (1Ru and 2Ru) to inhibit the migration of breast cancer cells (MCF-7 and MDA-MB-231) was assessed by an in vitro 24 h scratch assay. Low, sub-cytotoxic concentrations of 1, 10 and 20 μM were used in this evaluation.
(§8) MCF-7 or MDA-MB-231 cells were seeded in 12-well plates at 2 × 10^5 or 1 × 10^5 cells per mL, respectively, and cultured until 70–80% confluency. Afterwards, they were serum-starved (0% serum) for 24 h to inactivate the cell proliferation. A scratch was performed on the cell monolayers using a 200 μL pipette tip. Cells were then washed twice with PBS and treated with complete medium and one of the synthesized derivatives at 1, 10 or 20 μM. […] Images of the scratches were taken immediately after performing the scratch (t = 0 h) and at 24 h (t = 24 h). The area not covered by the cells was quantified using ImageJ software. % of wound closure was calculated using the following equation:100 × ((Area of scratch at t0 − Area of scratch at t24)/Area of scratch at t0)

MDA-MB-231 [9] = experiment: Wound healing (migration) 24 h scratch assay; format: cell-based, human; conditions: MDA-MB-231, 1, 10, 20 μM, 24 h
Protocol: as §7, §8

[10] = test system: cervical, breast, hepatocellular and colorectal cancer cell lines; design: method as in PMID 24793593; conditions: hepatocellular and colorectal cancer cell lines ref 19; cited from earlier work
[11] = test system: ovarian cancer cell lines; design: method as in doi:10.1021/OM500317B; conditions: ovarian cancer cell lines ref 20; cited from earlier work

SMILES | inhibition of the measured elements of tube formation (HUVECs) [%] | viability at 24 h, 40 µM [1] [%] | IC50 (MCF-7 [2]) [µM] | IC50 (MDA-MB-231 [3]) [µM] | hyperchromic shift (increase) at absorbance maximum λmax (VEGF i-motif DNA [4]) [%] | hyperchromic shift (increase) at absorbance maximum λmax (c-myc i-motif DNA [5]) [%] | Tm (VEGF i-motif DNA [6]) [°C] | ΔTm (VEGF i-motif DNA [6]) [°C] | Tm (c-myc i-motif DNA [7]) [°C] | ΔTm (c-myc i-motif DNA [7]) [°C] | melting point [°C] | antimigratory activity (MCF-7 [8]) | effect on the migration (MDA-MB-231 [9]) | hypochromic change at λmax (VEGF i-motif DNA [4]) [%] | IC50 [10] [µM] | IC50 [11] [µM]
O=c1cc(-c2ccc(O)c(O)c2)oc2cc(O)cc(O)c12 [luteolin, Luteolin, reference compound] | 30 | – | – | – | – | – | – | – | – | – | – | – | – | – | – | –
Oc1cc(O)c2c(=S)cc(-c3ccc(Cl)cc3)oc2c1 [compound 2, 2-(4-chlorophenyl)-5,7-dihydroxy-4H-chromene-4-thione] | – | ~100 | 1.2 ± 0.8 | 43.1 ± 1.29 | 16 | 18 | 47 | 1 | 47 | 2 | 247.7 to 248 | – | – | – | – | –
O=c1cc(-c2ccc(Cl)cc2)oc2cc(O)cc(O)c12 [compound 1, 2-(4-chlorophenyl)-5,7-dihydroxy-4H-chromen-4-one] | – | ~100 | > 100 | > 100 | – | 2 | 44 | −2 | 46 | 1 | – | no observed effects | neither showed any effect | 5 | – | –
N.N.[Cl][Pt][Cl] [cisplatin] | – | – | – | – | – | – | – | – | – | – | – | – | – | – | 13 to 52 | 1.5 to 25
